In patent publication US10597392B2, “Tetrahydropyridopyrazines as modulators of GPR6” (Takeda Pharmaceutical Corporation Limited, priority 2014, dated 2020):

Test system: Haloperidol-Induced Catalepsy
Assay: Haloperidol-Induced Catalepsy, In Vivo Rodent Parkinson's Disease Model
Details: Rat, sc
Text: Haloperidol-Induced Catalepsy—In Vivo Rodent Parkinson's Disease Model
The motor symptoms of Parkinson's disease include akinesia, bradykinesia, rigidity, tremor and postural abnormalities and are associated with the loss of nigral dopaminergic cells and a decline in striatal dopamine levels. Administration of haloperidol to rodents leads to a transient parkinsonian-like state that is reversed by the administration of L-Dopa (Duty, S.; Jenner, P. Br. J. Pharmacol. (2011), 164, 1357-1391) and other drugs that have been clinically validated for the treatment of Parkinson's disease. Haloperidol antagonizes dopamine D2 and, to a lesser extent, D1 receptors in medium spiny neurons that comprise the indirect and direct pathways of the motor circuit respectively. The resultant block of striatal dopamine transmission results in abnormal downstream firing within the basal ganglia circuits that is manifest as symptoms of muscle rigidity and catalepsy. Catalepsy has been postulated to reflect the clinical features of Parkinson's disease, whereby patients experience an inability of to initiate movements.
Male Sprague-Dawley rats (Charles River, Calco, Italy) weighing 175-200 g are used. Alternatively, male C57Bl6 mice weighing 25-35 g were used. The cataleptic state was induced by the subcutaneous administration of the dopamine receptor antagonist haloperidol (0.3 mg/kg, sc), 90 min before testing the animals on the vertical grid test. […] The time span from placement of the paws until the first complete removal of one paw (descent latency) was measured maximally for 120 sec for rats. For mice, the front paws of a mouse was placed on a horizontal metal bar raised 2″ above a Plexiglas platform and time was recorded for up to 30 seconds per trial. […]
Catalepsy was measured 30 min, […], and/or […] after dosing the subjects a 1.0 mg/kg i.p. dose of haloperidol along with the GPR6 modulator test compound. Test compound plasma and brain levels were determined by collected tissue samples at the end of the experiment, which was either at the 120 or 240 min time point. […]

Cc1cc2nc(NC3CC3)c(N3CCN(Cc4ccc(F)cc4F)CC3)nc2cn1 [Example 7, N-cyclopropyl-3-(4-(2,4-difluorobenzyl)piperazin-1-yl)-7-methylpyrido[3,4-b]pyrazin-2-amine]
% reversal at 90 min (dose 1 mg/kg): 33.5% | % reversal at 90 min (dose 10 mg/kg): 63.6% | % reversal at 90 min (dose 30 mg/kg): 42.8%
